Test results reported in patent US10172816B2, “Method of treating chronic obstructive pulmonary disease (CPD) with verproside” (YUNGJIN PHARMACEUTICAL CO., LTD, priority 2013, dated 2019).
Values belong to the compound of their own block, whether it stands above or below them.

What was measured:
Mucin 5A/C [1] = assay: Acrolein-induced Mucin 5A/C expression in A549 cells (RT-PCR); format: cell-based, human; settings: pre-treated 1 hour, then 30 nM acrolein, dose dependent
Experimental: The diluted A549 cell line (ATCC, CCL-185) with DMEM medium supplemented with 5% phenol red and FBS (Fetal Bovine Serum) was seeded in 6 well plates (4×10^5 cells/well) to adhere thereto for a night, and 20 and 40 microgram/ml of ATC2 extract were treated with A549 cell line for 1 hours. 30 nM acrolein was treated therewith to induce Mucin 5A/C expression. The medium was removed the cell, washed with PBS solution and homogenized with Trizol (Invitrogen, CA, USA) for the isolation of ribonucleic acids from the cells for 5 mins. the cells were collected, transferred to centrifugal separator, completely mixed with chloroform for 15 seconds, left alone for 3 mins and centrifuged for 15 mins at the speed of 14,000 rpm. The supernatant containing ribonucleic acid was transferred to new tube and mixed with isopropylalcohol for 10 mins. The solution was centrifuged to discard the supernatant and 75% ethanol was added to the precipitate. The precipitate was centrifuged for 5 mins at the speed of 10,000 rpm and the supernatant was discarded. The precipitated ribonucleic acid was dried at room temperature for 20 mins. […] After the quantification of ribonucleic acid, the complementary DNA was synthesized using by 1 microgram of RNA and RT-kit (Omniscript RT kit, Qiagen, USA) and the synthetic cDNA was used as a template. […]

[2] = target: ADBR2 (beta-2 adrenergic receptor) GPCR (Homo sapiens, UniProt P07550); assay: ADBR2 GPCR-targeting cell-based assay (spot formation); settings: 20 micromole; U2OS cells stably expressing ADBR2 GPCR
[3] = test system: inflammatory immunocytes and neutrophils in BALF; assay: COPD mouse model (LPS+CS, i.t.): immunocytes, neutrophils and T lymphocytes in BALF; format: in vivo, BALB/c mice; settings: 15 mg/kg, p.o.
Experimental: Specific pathogen-free male BALB/c mice (about 18-20 g), aged 8 weeks, which were routinely screened serologically for relevant respiratory pathogens, were purchased from ORIENT Co. (www.orient.co.kr, Seoul, Korea) and bred allowing to access freely to feed and water in breeding room controlling the temperature of 22±2° C., and humidity of 55±15% at the light-dark cycle for 12 hours and acclimated with the experimental environment for 1 week. […] 8 weeks aged BALB/c male mice was anaesthetized with 7% chloral hydrate and 100 μl of LPS+CS mixture {LPS (100 μg/ml)+standard cigarette extract (Cigarette smoking (CS), 4 mg/ml)=1:1} was inhaled to mice (i.t.) for three weeks once a week to prepare COPD animal model. Briefly, 100 μl of LPS+CS mixture was evenly inhaled to nose and mouth of fastened mice (i.t). […] After the end of experiment, the blood, BALF, and pneumonocyte of each mice were isolated and collected to test. After blood collection, 1 ml of FBS-free/DMEM medium contained in injector was injected to the trachea of autopsied mice, and the mice was fixed with string to circulate the blood three times and isolate the cell from BALF. […] The isolated PBMCs, BAL (Bronchoalveolar lavage), and pneumocyte were adjusted to 5×10^5 cells and performed to immunofluorescence staining at 4° C. PE-anti-CD3e (553064, BD Pharmingen, USA), FITC-anti-CD8 (553031, BD Pharmingen, USA), PE-anti-CD4 (553047, BD Pharmingen, USA), PE-anti-Gr-1 (553128, BD Pharmingen, USA), and FITC-anti-neutrophil (ab55453, Abcam, UK) were added thereto, respectively, and reacted for 30 mins in ice. After the reaction, the cells were washed with phosphate buffered physiological saline solution more than three times and the cell frequency (%) of CD3^+CD4^+& CD3^+CD8^+, and Gr-1^+Neutrophil^+ was determined using by Cell Quest program (643274, BD Biosciences, USA) of the flow cytometer (FACSCalibur, Becton, Dickinson, USA) and the absolute total number in each tissue was calculated by applying total cells.

TNF-α = assay: COPD mouse model (LPS+CS): TNF-α in BALF by ELISA; format: in vivo, BALB/c mice; settings: 15 mg/kg, p.o.
Experimental: (§1) 8 weeks aged BALB/c male mice was anaesthetized with 7% chloral hydrate and 100 μl of LPS+CS mixture {LPS (100 μg/ml)+standard cigarette extract (Cigarette smoking (CS), 4 mg/ml)=1:1} was inhaled to mice (i.t.) for three weeks once a week to prepare COPD animal model. Briefly, 100 μl of LPS+CS mixture was evenly inhaled to nose and mouth of fastened mice (i.t). […] After the end of experiment, the blood, BALF, and pneumonocyte of each mice were isolated and collected to test. The level of IL-1β, IL-6, TNF-a, IL-17, MCP-1, and GRO-a (BioSource, USA) in BALF isolated from mice was determined by enzyme-linked immuno-sorbent assay. Respective antibodies against L-1β, IL-6, TNF-a, IL-17, MCP-1, and GRO-a were diluted with a coating buffer solution (291195, R&D System, USA), coated on a microwell and left alone for overnight at 4° C. Each well was washed three times with washing buffer solution and 100 μl of 10-fold diluted serum was added thereto. […] The solution was left alone for 30 mins in shadow and added with 50 μl of stop solution (DY994, R&D system, USA) to determine the absorbance using by ELISA leader at 450 nm (340PC384, Molecular Devices, USA).

MIP-2/CXCL-2 = assay: COPD mouse model (LPS+CS): MIP-2/CXCL-2 in BALF by ELISA; format: in vivo, BALB/c mice; settings: 15 mg/kg, p.o.
[4] = test system: KC/CXCL-1 (Chemokines Gro-α); assay: COPD mouse model (LPS+CS): KC/CXCL-1 in BALF by ELISA; format: in vivo, BALB/c mice; settings: 15 mg/kg, p.o.
Experimental: as §1

Mucin 5A/C [5] = assay: Digitization of Mucin 5A/C expression in A549 cells by high content screening; format: cell-based, human; settings: 1, 5 and 10 ng/ml, versus control medium (GM)
Experimental: Accordingly, the present inventors developed novel high throughput screening test by introducing high content screening system which can quantitatively determine the expression of target protein in animal cell level and in order to screening the inhibiting agent of Mucin 5AC expression, following test was performed by modifying the target activator method published on Cellomics BioApplication.
A549 cell line (ATCC, CCL-185), a epithelial cell line isolated from human lung cancer tissue was seeded on 96 well plates (5,000 cells/well) and 24 hrs after the seeding, 20 ng/ml of bFGF, 100 ng/ml of EGF, 20 micromole IGF, 5 ng/ml of TGF-beta1, 30 nanomole acrolein, 5 nanomole PMA, 1 microgram/ml, LPS and 20 ng/ml of IL-1 beta were treated therewith. The expression of Mucin 5A/C was digitized by target activator program in Cellomics apparatus.
Various concentrations of TGF-beta 1 (PeproTech, #100-21), i.e., 1, 5 and 10 ng/ml TGF-beta 1 were treated with A549 cell line (ATCC, CCL-185), and the expression of Mucin 5A/C was digitized by target activator program in Cellomics apparatus.
Various concentrations of ATC2 extract were treated with A549 cell line for 2 hours and then […] TNF-alpha (Sigma, H8916) was treated therewith for 24 hours. The expression of Mucin 5A/C was digitized by target activator program in Cellomics apparatus.

Sequence of ADBR2 (beta-2 adrenergic receptor) GPCR (P07550 whole entry): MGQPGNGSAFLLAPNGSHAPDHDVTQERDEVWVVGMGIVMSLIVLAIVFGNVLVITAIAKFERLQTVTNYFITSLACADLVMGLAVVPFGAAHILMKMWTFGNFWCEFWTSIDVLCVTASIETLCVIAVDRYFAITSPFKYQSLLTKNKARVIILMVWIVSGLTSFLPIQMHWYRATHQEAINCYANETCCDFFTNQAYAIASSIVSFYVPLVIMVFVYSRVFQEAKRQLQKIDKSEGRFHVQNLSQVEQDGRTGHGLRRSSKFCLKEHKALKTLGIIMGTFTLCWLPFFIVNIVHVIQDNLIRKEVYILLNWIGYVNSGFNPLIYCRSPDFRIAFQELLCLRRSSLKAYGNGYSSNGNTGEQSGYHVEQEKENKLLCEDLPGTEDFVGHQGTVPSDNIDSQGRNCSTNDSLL

- spot formation [2]: did not show spot formation
Compound: COc1ccc(C(=O)O[C@H]2[C@@H]3C=CO[C@@H](O[C@@H]4O[C@H](CO)[C@@H](O)[C@H](O)[C@H]4O)[C@@H]3[C@@]3(CO)O[C@@H]23)cc1OC [6-O-veratroyl catalpol, 6-O-(3,4-dimethoxybenzoly) catalpol]
- expression of Mucin 5A/C (mRNA, RT-PCR) (Mucin 5A/C [1]): inhibited

Compound: O=C(Nc1c(Cl)cncc1Cl)c1ccc(OC(F)F)c(OCC2CC2)c1 [Roflumilast, reference compound]
- number of total immunocyte in BALF compared with control group [3]: sharply reduced
- reduction of number of neutrophils (Diff-Quik stained, cytospin) in BALF compared with control group [3]: > 99.0%
- reduction of total absolute cell number of CD8+ T cell in BALF compared with control group [3]: more than 67.2%
- reduction of total absolute cell number of Neutrophils+Gr-1+ cell in BALF compared with control group [3]: > 97.5%
- reduction of TNF-α in BALF compared with control group (TNF-α): > 65.0%
- reduction of chemokines MIP-2/CXCL-2 in BALF compared with control group (MIP-2/CXCL-2): > 81.9%
- reduction of chemokine KC/CXCL-1 in BALF compared with control group [4]: > 82.7%

- spot formation [2]: did not show spot formation
Compound: O=C(O[C@H]1[C@@H]2C=CO[C@@H](O[C@@H]3O[C@H](CO)[C@@H](O)[C@H](O)[C@H]3O)[C@@H]2[C@@]2(CO)O[C@@H]12)c1ccc(O)cc1 [catalposide, 6-O-(4-hydroxybenzolyl) catalpol]

- spot formation [2]: did not show spot formation
Compound: COc1ccc(C(=O)OC2C3C=COC(OC4OC(CO)C(O)C(O)C4O)C3C3(CO)OC23)cc1O (centres unmarked) [isovanilloyl catalpol, 6-O-(3-hydroxy-4-methoxybenzoyl)catalpol]

Compound: COc1cc(C(=O)O[C@H]2[C@@H]3C=CO[C@@H](O[C@@H]4O[C@H](CO)[C@@H](O)[C@H](O)[C@H]4O)[C@@H]3[C@@]3(CO)O[C@@H]23)ccc1O [picroside II, 6-O-(4-hydroxy-3-methoxybenzoly) catalpol]
- spot formation [2]: did not show spot formation

Compound: COc1ccc(C(=O)O)cc1OC [veratric acid]
- spot formation [2]: did not show spot formation

Compound: TGF-beta1: TGF-beta 1 (PeproTech, #100-21)
- expression of Mucin 5A/C (Mucin 5A/C [5]): more inhibited the expression of MUCSA/C than control medium
